12 compounds from ChEMBL document CHEMBL2424577, “Cytotoxicity and DNA-binding property of water-soluble naphthalene diimide derivatives bearing 2-oligoethoxy ethanamine side chain end-labeled with tertiary amino groups” (Med Chem Res, 2013) can be followed below.

Assay [1] has as its system HeLa. Nature of the assay: Antiproliferative activity against human HeLa cells after 48 hrs by MTT assay. It is filed as functional, cell-based.
The subject of assay [2] is A549. Nature of the assay: Antiproliferative activity against human A549 cells after 48 hrs by MTT assay. It is filed as functional, cell-based. To be noted: A549, 48 h.
Assay [3] deals with K562. Nature of the assay: Antiproliferative activity against human K562 cells after 48 hrs by MTT assay. In kind it is functional, cell-based. The note with it: K562, 48 h.
Assay [4] is described as follows: Binding affinity to G-quadruplex DNA (unknown origin) in phosphate buffer at pH 7.4 at 5 x 10 '-5 M by Uv-Vis spectroscopy.
In assay [5] the test system is DNA. The assay can be described thus: Binding affinity to calf thymus DNA in phosphate buffer at pH 7.4 assessed as hypochromicity at 5 x 10 '-5 M by Uv-Vis spectroscopy. It is filed as nucleic-acid assay. To be noted: Bos taurus.
Assay [6] in a line: Binding affinity to G-quadruplex DNA (unknown origin) in phosphate buffer at pH 7.4 assessed as hypochromicity at 5 x 10 '-5 M by Uv-Vis spectroscopy.
Assay [7] concerns DNA. The assay can be described thus: Binding affinity to calf thymus DNA in phosphate buffer at pH 7.4 at 2 x 10 '-5 M by CD spectra analysis. In kind it is nucleic-acid assay. The note with it: Bos taurus.
A short description of assay [8]: Binding affinity to G-quadruplex DNA (unknown origin) in phosphate buffer at pH 7.4 at 5 x 10 '-5 M by fluorescence spectroscopy.
The nature of assay [9]: Binding affinity to G-quadruplex DNA (unknown origin) in phosphate buffer at pH 7.4 at 2 x 10 '-5 M by CD spectra analysis.
Assay [10] deals with DNA. The assay can be described thus: Binding affinity to calf thymus DNA in phosphate buffer at pH 7.4 at 5 x 10 '-5 M by fluorescence spectroscopy. It is filed as nucleic-acid assay. The note with it: Bos taurus.
The test system of assay [11] is DNA. The assay can be described thus: Binding affinity to calf thymus DNA in phosphate buffer at pH 7.4 at 5 x 10 '-5 M by Uv-Vis spectroscopy. It is filed as nucleic-acid assay. The note with it: Bos taurus.

Active and inactive are the calls of the source. The calls are words filed in the database; no cut-off is given here.

For `CN(C)CCN1C(=O)c2ccc3c4c(c(NCCOCCN5CCN(C)CC5)cc(c24)C1=O)C(=O)N(CCN(C)C)C3=O`, the IC50 in [1] worked out at 5190 nM; in assay [2], 2940 nM; in assay [3] it was 3030 nM.

As for `CN(C)CCN1C(=O)c2ccc3c4c(c(NCCOCCOCCOCCN5CCCCC5)cc(c24)C1=O)C(=O)N(CCN(C)C)C3=O`, the figures for the concentration for half-maximal inhibition (IC50) in [1], in assay [2] and in assay [3] were 4060 nM, 6870 nM and 2940 nM, respectively.

With `CN(C)CCN1C(=O)c2ccc3c4c(c(NCCOCCOCCOCCN5CCOCC5)cc(c24)C1=O)C(=O)N(CCN(C)C)C3=O`, the figures for the Kb in [4] and in [11] were 1.5 ×10⁴ /M and 2.3 ×10⁵ /M, respectively. Besides, the Activity was determined as 25% in assay [5] and 9% in assay [6]. Further, the 50% inhibitory concentration (IC50) was determined as 3800 nM in assay [1], 2530 nM in assay [2] and 5790 nM in assay [3]. The outcome in assay [7] and in assay [9] was Active. Also, the K came to 1.5 ×10⁴ /M in [8] and 3.8 ×10⁵ /M in assay [10].

With `CN(C)CCN1C(=O)c2ccc3c4c(c(NCCOCCOCCOCCN5CCCC5)cc(c24)C1=O)C(=O)N(CCN(C)C)C3=O`, the half-maximal inhibitory concentration (IC50) in assay [1] is 5170 nM; in assay [2], 7120 nM; in assay [3], 7100 nM.

Take `CN(C)CCN1C(=O)c2ccc3c4c(c(NCCOCCOCCN5CCCC5)cc(c24)C1=O)C(=O)N(CCN(C)C)C3=O`: the values for the concentration for half-maximal inhibition (IC50) in [1], in assay [2] and in assay [3] were 5000 nM, 2910 nM and 2520 nM, respectively.

Take `CN(C)CCN1C(=O)c2ccc3c4c(c(NCCOCCOCCN5CCOCC5)cc(c24)C1=O)C(=O)N(CCN(C)C)C3=O`: the Kb in assay [4] was found to be 4.8 ×10⁴ /M; in [11], 4.5 ×10⁵ /M. The Activity worked out at 28% in [5] and 11% in assay [6]. The IC50 in assay [1] came to 5930 nM; in [2] it was 2830 nM; in assay [3] it was 1480 nM. The outcome in assay [7] and in assay [9] was Active. For the same compound, the K in [8] was found to be 2.3 ×10⁴ /M; in assay [10] it was 5.4 ×10⁵ /M.

As for `CN(C)CCN1C(=O)c2ccc3c4c(c(NCCOCCN5CCOCC5)cc(c24)C1=O)C(=O)N(CCN(C)C)C3=O`, the Kb in assay [4] was 2.8 ×10⁵ /M; in assay [11] it was 2.1 ×10⁶ /M. Besides, the Activity amounted to 31% in assay [5] and 13% in assay [6]. Moreover, the IC50 amounted to 2610 nM in assay [1], 2950 nM in assay [2] and 670 nM in [3]. In addition, the result in [7] and in [9] was Active. Moreover, the K in assay [8] is 6.8 ×10⁵ /M; in assay [10] it was 3.9 ×10⁶ /M.

For `CN(C)CCN1C(=O)c2ccc3c4c(c(NCCOCCOCCN5CCN(C)CC5)cc(c24)C1=O)C(=O)N(CCN(C)C)C3=O`, the concentration for half-maximal inhibition (IC50) in assay [1] amounted to 9800 nM; in assay [2], 6870 nM; in [3] it was 2780 nM.

Turning to `CN(C)CCN1C(=O)c2ccc3c4c(c(NCCOCCN5CCCC5)cc(c24)C1=O)C(=O)N(CCN(C)C)C3=O`, the values for the IC50 in [1], in assay [2] and in assay [3] were 2150 nM, 2030 nM and 590 nM, respectively.

In the case of `CN(C)CCN1C(=O)c2ccc3c4c(c(NCCOCCOCCN5CCCCC5)cc(c24)C1=O)C(=O)N(CCN(C)C)C3=O`, the concentration for half-maximal inhibition (IC50) in [1] is 5950 nM; in assay [2], 2930 nM; in assay [3] it was 1240 nM.

`CN(C)CCN1C(=O)c2ccc3c4c(c(NCCOCCOCCOCCN5CCN(C)CC5)cc(c24)C1=O)C(=O)N(CCN(C)C)C3=O`: the IC50 in [1] stood at 2880 nM; in assay [2], 7420 nM; in assay [3] it was 3630 nM.

On to `CN(C)CCN1C(=O)c2ccc3c4c(c(NCCOCCN5CCCCC5)cc(c24)C1=O)C(=O)N(CCN(C)C)C3=O`, for which the IC50 in [1] turned out to be 2080 nM; in assay [2], 2190 nM; in assay [3], 610 nM.
